Experimental data reported in US20060014644A1, “Phenylsulfonyl ureas, process for their preparation and their use as herbicides and plant growth regulators” (Hoechst Schering AgrEvo GmbH, priority 1999, published 2006).

What was measured:
[1] = system: harmful plants such as Sinapis alba, Chrysanthemum segetum, Avena sativa, Stellaria media, Echinochloa crus-galli, Lolium multiflorum, Setaria spp., Abutilon …; experiment: Pre-emergence effect on weeds (greenhouse pot test, visual scoring); assay type: in vivo, monocotyledonous and dicotyledonous weed plants; conditions: application rate of 0.3 kg and less of active substance per hectar, scored visually after 3 to 4 weeks by comparison with untreated controls
Source text: 1. Pre-Emergence Effect on Weeds
Seeds or rhizome pieces of monocotyledonous and dicotyledonous weed plants were placed in sandy loam soil in cardboard pots and covered with soil. The compounds according to the invention which were formulated in the form of wettable powders or emulsion concentrates were then applied to the surface of the soil cover in the form of aqueous suspensions or emulsions at an application rate of 600 to 800 l of water/ha (converted), in various dosages.
After the treatment, the pots were placed in a greenhouse and kept under good growth conditions for the weeds. After the test plants had emerged, the damage to the plants or the negative effect on the emergence was scored visually after a test period of 3 to 4 weeks by comparison with untreated controls. As shown by the test results, compounds according to the invention have good herbicidal pre-emergence activity against a broad spectrum of weed grasses and broad-leafed weeds.

[2] = system: harmful plants such as Sinapis alba, Echinochloa crus-galli, Lolium multiflorum, Chrysanthemum segetum, Setaria spp., Abutilon theophrasti, Amaranthus …; experiment: Post-emergence effect on weeds (greenhouse pot test, visual scoring); assay type: in vivo, monocotyledonous and dicotyledonous weeds; conditions: three-leaf stage, application rate of 0.3 kg and less of active substance per hectare, scored visually after about 3 to 4 weeks by comparison with untreated controls
Procedure: 2. Post-Emergence Effect on Weeds
Seeds or rhizome pieces of monocotyledonous and dicotyledonous weeds were placed in sandy loam soil in plastic pots, covered with soil and grown in a greenhouse under good growth conditions. Three weeks after sowing, the test plants were treated at the three-leaf stage. The compounds according to the invention which were formulated as wettable powders or emulsion concentrates were sprayed, at various dosages, onto the green parts of the plants at an application rate of 600 to 800 l of water/ha (converted). After the test plants had remained in the greenhouse for about 3 to 4 weeks under ideal growth conditions, the effect of the preparations was scored visually by comparison with untreated controls. The agents according to the invention also have good herbicidal activity post-emergence against a broad spectrum of economically important Weed grasses and broad-loafed weeds.

Row | Compound | herbicidal activity against harmful plants, pre-emergence [1] | herbicidal activity against harmful plants, post-emergence [2]
1 | COc1nc(NC(=O)NS(=O)(=O)c2cccc(N)c2C(=O)O)nc(OC)n1 [Example 1-9] | very good herbicidal activity | very good herbicidal activity
2 | COC(=O)c1c(N)cccc1S(=O)(=O)NC(=O)Nc1nc(OC)cc(OC)n1 [Example 1-11] | very good herbicidal activity | very good herbicidal activity
3 | COC(=O)c1c(N)cccc1S(=O)(=O)NC(=O)Nc1nc(C)nc(OC)n1 [Example 1-15] | very good herbicidal activity | very good herbicidal activity
4 | COC(=O)c1c(N)cccc1S(=O)(=O)[N-]C(=O)Nc1nc(C)nc(OC)n1.[Na+] [Example 1-16] | very good herbicidal activity | very good herbicidal activity
5 | COC(=O)c1c(N)cccc1S(=O)(=O)NC(=O)Nc1nc(C)cc(OC)n1 [Example 1-17] | very good herbicidal activity | very good herbicidal activity
6 | COC(=O)c1c(N)cccc1S(=O)(=O)NC(=O)Nc1nc(Cl)cc(OC)n1 [Example 1-23] | very good herbicidal activity | very good herbicidal activity
7 | COC(=O)c1c(N)cccc1S(=O)(=O)NC(=O)Nc1nc(OC)nc(OC)n1 [Example 1-25] | very good herbicidal activity | very good herbicidal activity
8 | COC(=O)c1c(N)cccc1S(=O)(=O)[N-]C(=O)Nc1nc(OC)nc(OC)n1.[Na+] [Example 1-26] | very good herbicidal activity | very good herbicidal activity
9 | COC(=O)c1c(N)cccc1S(=O)(=O)NC(=O)Nc1nc(OC(F)F)cc(OC(F)F)n1 [Example 1-41] | very good herbicidal activity | very good herbicidal activity
10 | CCOC(=O)c1c(N)cccc1S(=O)(=O)NC(=O)Nc1nc(OC)cc(OC)n1 [Example 1-45] | very good herbicidal activity | very good herbicidal activity
11 | CCOC(=O)c1c(N)cccc1S(=O)(=O)NC(=O)Nc1nc(C)nc(OC)n1 [Example 1-47] | very good herbicidal activity | very good herbicidal activity
12 | CCOC(=O)c1c(N)cccc1S(=O)(=O)NC(=O)Nc1nc(Cl)cc(OC)n1 [Example 1-55] | very good herbicidal activity | very good herbicidal activity
13 | CCOC(=O)c1c(N)cccc1S(=O)(=O)NC(=O)Nc1nc(OC)nc(OC)n1 [Example 1-57] | very good herbicidal activity | very good herbicidal activity
14 | CNc1cccc(S(=O)(=O)NC(=O)Nc2nc(OC)cc(OC)n2)c1C(=O)OC [Example 1-105] | very good herbicidal activity | very good herbicidal activity
15 | CCNc1cccc(S(=O)(=O)NC(=O)Nc2nc(OC)cc(OC)n2)c1C(=O)OC [Example 1-129] | very good herbicidal activity | very good herbicidal activity
16 | CCNc1cccc(S(=O)(=O)NC(=O)Nc2nc(C)nc(OC)n2)c1C(=O)OC [Example 1-131] | very good herbicidal activity | very good herbicidal activity
17 | CCNc1cccc(S(=O)(=O)NC(=O)Nc2nc(OC)nc(OC)n2)c1C(=O)OC [Example 1-135] | very good herbicidal activity | very good herbicidal activity
18 | COC(=O)c1c(NC(C)C)cccc1S(=O)(=O)NC(=O)Nc1nc(OC)cc(OC)n1 [Example 1-153] | very good herbicidal activity | very good herbicidal activity

Row | Compound | herbicidal activity against harmful plants, pre-emergence [1] | herbicidal activity against harmful plants, post-emergence [2]
19 | COC(=O)c1c(NC(C)C)cccc1S(=O)(=O)[N-]C(=O)Nc1nc(OC)cc(OC)n1.[Na+] [Example 1-154] | very good herbicidal activity | very good herbicidal activity
20 | COC(=O)c1c(NC(C)C)cccc1S(=O)(=O)NC(=O)Nc1nc(C)nc(OC)n1 [Example 1-155] | very good herbicidal activity | very good herbicidal activity
21 | COC(=O)c1c(NC(C)C)cccc1S(=O)(=O)NC(=O)Nc1nc(OC)nc(OC)n1 [Example 1-159] | very good herbicidal activity | very good herbicidal activity
22 | COC(=O)c1c(NCC(C)C)cccc1S(=O)(=O)NC(=O)Nc1nc(OC)cc(OC)n1 [Example 1-177] | very good herbicidal activity | very good herbicidal activity
23 | COC(=O)c1c(NCC(C)C)cccc1S(=O)(=O)NC(=O)Nc1nc(C)nc(OC)n1 [Example 1-179] | very good herbicidal activity | very good herbicidal activity
24 | CCOC(=O)c1c(NCC(C)C)cccc1S(=O)(=O)NC(=O)Nc1nc(Cl)cc(OC)n1 [Example 1-189] | very good herbicidal activity | very good herbicidal activity
25 | COC(=O)c1c(NCCCC(F)(F)F)cccc1S(=O)(=O)NC(=O)Nc1nc(OC)cc(OC)n1 [Example 1-241] | very good herbicidal activity | very good herbicidal activity
26 | COC(=O)c1c(NCCCC(F)(F)F)cccc1S(=O)(=O)NC(=O)Nc1nc(C)nc(OC)n1 [Example 1-243] | very good herbicidal activity | very good herbicidal activity
27 | COC(=O)c1c(NCCCC(F)(F)F)cccc1S(=O)(=O)NC(=O)Nc1nc(OC)nc(OC)n1 [Example 1-247] | very good herbicidal activity | very good herbicidal activity
28 | CCC(C)Nc1cccc(S(=O)(=O)NC(=O)Nc2nc(OC)cc(OC)n2)c1C(=O)OC (stereo not drawn) [Example 1-265] | very good herbicidal activity | very good herbicidal activity
29 | CCC(C)Nc1cccc(S(=O)(=O)NC(=O)Nc2nc(C)nc(OC)n2)c1C(=O)OC (stereo not drawn) [Example 1-267] | very good herbicidal activity | very good herbicidal activity
30 | CCC(C)Nc1cccc(S(=O)(=O)NC(=O)Nc2nc(OC)nc(OC)n2)c1C(=O)OC (stereo not drawn) [Example 1-271] | very good herbicidal activity | very good herbicidal activity
31 | COC(=O)c1c(NC2CC2)cccc1S(=O)(=O)NC(=O)Nc1nc(OC)cc(OC)n1 [Example 1-353] | very good herbicidal activity | very good herbicidal activity
32 | COC(=O)c1c(NC2CC2)cccc1S(=O)(=O)NC(=O)Nc1nc(C)nc(OC)n1 [Example 1-355] | very good herbicidal activity | very good herbicidal activity
33 | COC(=O)c1c(NC2CC2)cccc1S(=O)(=O)NC(=O)Nc1nc(OC)nc(OC)n1 [Example 1-359] | very good herbicidal activity | very good herbicidal activity
34 | COC(=O)c1c(NCc2ccccc2)cccc1S(=O)(=O)NC(=O)Nc1nc(OC)cc(OC)n1 [Example 1-381] | very good herbicidal activity | very good herbicidal activity
35 | COC(=O)c1c(NCc2ccccc2)cccc1S(=O)(=O)NC(=O)Nc1nc(C)nc(OC)n1 [Example 1-383] | very good herbicidal activity | very good herbicidal activity
36 | COC(=O)c1c(NCc2ccccc2)cccc1S(=O)(=O)NC(=O)Nc1nc(OC)nc(OC)n1 [Example 1-387] | very good herbicidal activity | very good herbicidal activity
